According to publication PMC8291071, “Tertiary sulphonamide derivatives as dual acting small molecules that inhibit LSD1 and suppress tubulin polymerisation against liver cancer” (Journal of Enzyme Inhibition and Medicinal Chemistry, 2021):
Entries after “also recorded” stand apart in the source; their conditions may differ.

Legend:
SNU-475 = assay: MTT antiproliferative assay, SNU-475 cells; assay type: cell-based; conditions: Homo sapiens, 48 h
Bel-7402 = assay: MTT antiproliferative assay, Bel-7402 cells; assay type: cell-based; conditions: Homo sapiens, 48 h
Procedure: (§1) Cell lines were purchased from Servicebio (Wuhan, China) and cultured in RPMI1640 (Servicebio, Wuhan, China) with 10% foetal bovine serum and 1% antibiotic agent (Servicebio, Wuhan, China) at 37 °C. With the treatment of synthetic compounds, cells were cultured for 48 h and added with MTT solution (Servicebio, Wuhan, China). After 4 h, medium was removed and DMSO was added to culture for 30 min. Finally, the absorbance value was obtained by a microplate reader (Multiskan Sky, Thermo Fisher, Shanghai, China).
(§2) In order to discover the potent anti-liver cancer agents, all tertiary sulphonamide analogues were evaluated for their anticancer activity in vitro against liver cancer cell lines ([…], HepG-2 and Bel-7402). Cell lines were treat with different tertiary sulphonamide derivatives 16 and 17a∼17f for 48 h to obtain IC50 values. In this work, 5-fluorouracil as an well-known antitumor drug was selected as the control agent.

HepG-2 = assay: MTT antiproliferative assay, HepG-2 cells; assay type: cell-based; conditions: for IC50: Homo sapiens, HepG2, 48 h, MTT
Procedure: as §1, §2

L-02 cells = assay: Cytotoxicity against normal liver cell line L-02; assay type: cell-based
Procedure: as §1

[1] = test system: interphase microtubules in Bel-7402 cells; assay: Immunofluorescence of interphase microtubules in Bel-7402 cells; assay type: cell-based; conditions: 50 nM
Procedure: Liver cancer Bel-7402 cells were cultured on the slices for 24 h and treated with tertiary sulphonamide derivatives for 48 h. Then, Bel-7402 cells were fixed by 4% paraformaldehyde solution (Shanghai Yuanye Bio-Technology Co., Ltd, Shanghai, China) for 30 min. Bovine albumin was used to block the system for 30 min. Bel-7402 cells were cultured with β-tubulin and incubated for 24 h at 4 °C. Finally, 4′,6-diamidino-2-phenylindole (DAPI) was added in a dark room to obtain images of immunostaining (Confocal laser scanning microscope, FV3000RS, Beijing, China).

Bel-7402&shControl cells = assay: Cell viability of control Bel-7402 cells; assay type: cell-based
[2] = test system: H3K9me1/2 in Bel-7402 cells; assay: Western blot of H3K9me1 and H3K9me2 in Bel-7402 cells; assay type: cell-based; conditions: 48 h
Procedure: Liver cancer Bel-7402 cells were cultured for 24 h and treated with tertiary sulphonamide derivative 17a for 48 h at 37 °C. Protein lysates were harvested from the treated Bel-7402 cells. Nitrocellulose membrane was used to perform polyacrylamide gelelectrophoresis. H3K9me1 and H3K9me2 (Servicebio, Wuhan, China) were treated with the nitrocellulose membrane at 4 °C for 12 h. GAPDH as the secondary antibody was incubated for 1 h at room temperature (Shanghai Yuanye Bio-Technology Co., Ltd, Shanghai, China).
(§3) LSD1 could specifically demethylate mono- and dimethyl-lysine on histone H3 H3K9me1/2), leading to the transcriptional repression or activation of target genes. Thus, the expression levels of H3K9me1/2 in liver cancer Bel-7402 cells were explored with the treatment of 17a. […] The migration effects of tertiary sulphonamide derivative 17a were also investigated.

Bel-7402 cells = assay: Transwell migration assay; assay type: cell-based; conditions: 48 h
Procedure: Liver cancer Bel-7402 cells were cultured in the upper chambers of a Transwell 24-well plate (Servicebio, Wuhan, China) for 24 h. 1% FBS and 20% FBS were added into the upper chambers and lower chambers respectively. […] Then, all medium was removed and Bel-7402 cells were fixed with ethanol for 30 min. Finally, Bel-7402 cells from the upper chambers were stained with haematoxylin solution (Servicebio, Wuhan, China) for 30 min.
as §3

Bel-7402 xenograft = Bel-7402 xenograft antitumour study; conditions: 60 mg/kg, intragastric administration, 21 days
Procedure: (§4) Xenograft models using Bel-7402 cells was established in nude mice (Jiangsu ALF Biotechnology Co., LTD, Jiangsu, China). Then, mice-bearing tumours were divided into two groups (vehicle and 60 mg/kg group). […] Tumour volume and tumour weight of treated mice were measured.
(§5) Xenograft tumours were produced by the subcutaneous implantation of liver cancer Bel-7402 cells.

[3] = test system: heart, liver, spleen, lung and kidney; assay: Haematoxylin & eosin staining of organs of treated mice; conditions: 60 mg/kg, intragastric, 21 days, H&E staining
Procedure: as §4, §5

tubulin = assay: Inhibitory activity of tubulin polymerisation in vitro; assay type: biochemical; conditions: fluorescence intensity
LSD1 = LSD1 (Homo sapiens, UniProt O60341); assay: LSD1 enzymatic assay; conditions: for inhibition at 0.2 µM: read-out: inhibitory rate against LSD1

| Structure (SMILES) | IC50 (SNU-475) [µM] | IC50 (Bel-7402) [µM] | IC50 (HepG-2) [µM] | cytotoxicity against L-02 cells (L-02 cells) [µM] | depolymerisation of interphase microtubules [1] | cell viability of Bel-7402&shControl cells (Bel-7402&shControl cells) | expression levels of H3K9me1 and H3K9me2 [2] | migration of Bel-7402 cells (Bel-7402 cells) | reduction of tumour weight (Bel-7402 xenograft) [%] | tumour growth (Bel-7402 xenograft) | toxicity of organs (heart, liver, spleen, lung and kidney) [3] | melting point [°C] | IC50 (tubulin) [µM] | IC50 (LSD1) [µM] | fold activity loss against LSD1 (LSD1; methyl group replaced with acetyl group (17d VS. 17f as printed)) | inhibition at 0.2 µM (LSD1) [%] | fold activity increase against HepG-2 cells (HepG-2; 17b VS. 17c) |
| --- | --- | --- | --- | --- | --- | --- | --- | --- | --- | --- | --- | --- | --- | --- | --- | --- | --- |
| COc1ccc(S(=O)(=O)N(CCSC(=S)N2CCN(C)CC2)c2cc(OC)c(OC)c(OC)c2)cc1 [Compound 17a, 2-((4-Methoxy-N-(3,4,5-trimethoxyphenyl)phenyl)sulfonamido)ethyl-4-methylpiperazine-1-carbodithioate] | 0.73 ± 0.16 | 0.32 ± 0.08 | 0.57 ± 0.07 | > 64 | more pronounced depolymerisation effects | potently inhibited the cell viability | increased the expression levels of H3K9me1 and H3K9me2 | concentration-dependently inhibited migration; also recorded: significantly inhibited the migration | 42.97 | effectively inhibited the tumour growth in vivo | no apparent toxicity of organs |  |  |  |  |  |  |
| COc1ccc(S(=O)(=O)N(CCBr)c2cc(OC)c(OC)c(OC)c2)cc1 [Compound 16, N-(2-bromoethyl)-4-methoxy-N-(3,4,5-trimethoxyphenyl)benzenesulfonamide] | > 20 | > 20 | > 20 |  |  |  |  |  |  |  |  | 116 to 118 |  |  |  |  |  |
| COc1ccc(S(=O)(=O)N(CCSC(=S)N2CCN(C(C)=O)CC2)c2cc(OC)c(OC)c(OC)c2)cc1 [Compound 17d, 2-((4-Methoxy-N-(3,4,5-trimethoxyphenyl)phenyl)sulfonamido)ethyl-4-acetylpiperazine-1-carbodithioate] | 5.06 ± 0.68 | 1.58 ± 1.02 | 3.29 ± 0.84 |  |  |  |  |  |  |  |  | 152 to 154 | 1.78 | > 0.2 | over 3 fold | 46 |  |
| COc1ccc(S(=O)(=O)N(CCSC(=S)N2CCN(C(=O)OC(C)(C)C)CC2)c2cc(OC)c(OC)c(OC)c2)cc1 [Compound 17f, Tert-butyl-4-(((2-((4-methoxy-N-(3,4,5-trimethoxyphenyl)phenyl)sulfonamido)ethyl)thio)carbonothioyl)piperazine-1-carboxylate] | 4.46 ± 1.38 | 2.32 ± 1.63 | 6.67 ± 1.25 |  | moderately depolymerised interphase microtubules |  |  |  |  |  |  | 162 to 164 | 3.07 | > 0.2 |  | 35.7 |  |
| COc1ccc(S(=O)(=O)N(CCSC(=S)N2CCN(c3ccc(F)cc3)CC2)c2cc(OC)c(OC)c(OC)c2)cc1 [Compound 17e, 2-((4-Methoxy-N-(3,4,5-trimethoxyphenyl)phenyl)sulfonamido)ethyl-4–(4-fluorophenyl)piperazine-1-carbodithioate] | 6.17 ± 1.05 | 9.18 ± 1.32 | 7.57 ± 0.96 |  |  |  |  |  |  |  |  | 166 to 168 |  |  |  |  |  |
| CCN1CCN(C(=S)SCCN(c2cc(OC)c(OC)c(OC)c2)S(=O)(=O)c2ccc(OC)cc2)CC1 [Compound 17b, 2-((4-Methoxy-N-(3,4,5-trimethoxyphenyl)phenyl)sulfonamido)ethyl-4-ethylpiperazine-1-carbodithioate] | 2.35 ± 0.7 | 1.37 ± 0.16 | 1.03 ± 0.28 | > 64 | more pronounced depolymerisation effects |  |  |  |  |  |  | 150 to 152 | 2.13 | 0.127 |  |  | over 8 fold |
| COc1ccc(S(=O)(=O)N(CCSC(=S)N2CCN(CCO)CC2)c2cc(OC)c(OC)c(OC)c2)cc1 [Compound 17c, 2-((4-Methoxy-N-(3,4,5-trimethoxyphenyl)phenyl)sulfonamido)ethyl-4–(2-hydroxyethyl)piperazine-1-carbodithioate] | 10.8 ± 1.01 | 7.09 ± 1.33 | 9.17 ± 2.18 |  |  |  |  |  |  |  |  | 146 to 148 |  |  |  |  |  |
| O=c1[nH]cc(F)c(=O)[nH]1 [5-Fluorouracil, reference compound] | 26.47 ± 0.16 | 15.1 ± 1.28 | 12.2 ± 0.68 |  |  |  |  |  |  |  |  |  |  |  |  |  |  |
